Assays:
pancreatic alpha-amylase = target: T1, pancreatic alpha-amylase (Homo sapiens, UniProt P04746); conditions: background statement; in vitro; cited from earlier work
T1 sequence (P04746 16-511): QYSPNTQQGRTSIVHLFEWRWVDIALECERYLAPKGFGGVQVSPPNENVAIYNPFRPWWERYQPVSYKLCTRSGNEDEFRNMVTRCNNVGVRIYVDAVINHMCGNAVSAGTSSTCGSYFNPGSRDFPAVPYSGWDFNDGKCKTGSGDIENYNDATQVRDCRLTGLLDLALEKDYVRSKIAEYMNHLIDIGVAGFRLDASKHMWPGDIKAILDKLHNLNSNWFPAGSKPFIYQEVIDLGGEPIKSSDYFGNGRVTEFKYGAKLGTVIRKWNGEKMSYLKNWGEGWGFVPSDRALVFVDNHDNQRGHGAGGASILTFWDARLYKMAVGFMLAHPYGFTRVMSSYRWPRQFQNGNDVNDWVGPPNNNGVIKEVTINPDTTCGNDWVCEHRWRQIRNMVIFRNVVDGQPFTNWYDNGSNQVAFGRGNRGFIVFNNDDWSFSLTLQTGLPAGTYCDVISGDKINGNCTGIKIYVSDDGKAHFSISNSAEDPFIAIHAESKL

[1] = system: intestinal alpha-glucosidase; conditions: background statement; in vitro; cited from earlier work
Cortisol = assay: Blood cortisol before and 90 minutes after administration; format: in vivo, human
Method: (§1) Subject 5 was a person, weighing approximately 285 pounds and with a normal fasting blood sugar level of 115-120. First, blood was drawn from Subject 5 and levels of various biomolecules were measured. Next, Subject 5 was administered 16.66 ml of the Example 1 formulation on an empty stomach, i.e. wherein with each 16.66 ml the subject received 5,000 mg of the potassium-magnesium (−)-hydroxycitric acid salt, corresponding to 3490 mg of (−)-hydroxycitric acid. 90 minutes after the administration, blood was drawn from Subject 5 and levels of the various biomolecules were remeasured.
(§2) Subject 6 was administered 16.66 ml of the Example 1 formulation on an empty stomach, i.e. wherein with each 16.66 ml the subject received 5,000 mg of the potassium-magnesium (−)-hydroxycitric acid salt, corresponding to 3490 mg of (−)-hydroxycitric acid. 90 minutes after the administration, blood was drawn from Subject 6 and levels of the various biomolecules were remeasured.

Triglycerides = assay: Blood triglycerides before and 90 minutes after administration; format: in vivo, human
Method: as §1, §2

ATP citrate lyase = target: T2, ATP citrate lyase (Homo sapiens, UniProt P53396); conditions: background statement; cited from earlier work
T2 sequence (P53396 1-1101): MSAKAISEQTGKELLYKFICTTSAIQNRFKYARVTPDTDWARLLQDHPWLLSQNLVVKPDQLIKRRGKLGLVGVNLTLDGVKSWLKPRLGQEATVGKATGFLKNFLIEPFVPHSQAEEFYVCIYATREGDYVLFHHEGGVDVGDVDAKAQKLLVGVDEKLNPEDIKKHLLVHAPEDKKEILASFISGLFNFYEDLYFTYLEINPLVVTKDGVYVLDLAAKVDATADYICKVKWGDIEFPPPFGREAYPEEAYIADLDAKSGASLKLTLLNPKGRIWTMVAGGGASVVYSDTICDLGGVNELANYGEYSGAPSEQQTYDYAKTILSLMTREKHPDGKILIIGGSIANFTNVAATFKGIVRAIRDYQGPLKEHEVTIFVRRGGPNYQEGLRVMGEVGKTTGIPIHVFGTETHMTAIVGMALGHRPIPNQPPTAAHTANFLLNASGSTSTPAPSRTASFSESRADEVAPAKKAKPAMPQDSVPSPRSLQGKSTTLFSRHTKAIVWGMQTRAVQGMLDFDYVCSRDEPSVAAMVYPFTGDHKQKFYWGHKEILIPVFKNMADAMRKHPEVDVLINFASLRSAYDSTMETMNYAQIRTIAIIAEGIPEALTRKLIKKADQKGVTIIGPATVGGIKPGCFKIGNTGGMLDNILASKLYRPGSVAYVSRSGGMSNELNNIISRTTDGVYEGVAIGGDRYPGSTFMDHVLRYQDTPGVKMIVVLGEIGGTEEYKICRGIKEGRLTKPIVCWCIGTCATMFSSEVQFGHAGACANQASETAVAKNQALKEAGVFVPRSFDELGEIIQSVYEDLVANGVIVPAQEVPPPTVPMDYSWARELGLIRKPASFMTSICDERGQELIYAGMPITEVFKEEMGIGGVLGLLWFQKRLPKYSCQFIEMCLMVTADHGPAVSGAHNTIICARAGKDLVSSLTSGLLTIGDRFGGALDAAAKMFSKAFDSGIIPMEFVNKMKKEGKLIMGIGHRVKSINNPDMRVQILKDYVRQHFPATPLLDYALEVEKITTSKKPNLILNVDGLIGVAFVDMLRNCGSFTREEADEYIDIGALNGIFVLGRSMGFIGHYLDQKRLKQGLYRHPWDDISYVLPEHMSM

Ketones = assay: Blood ketones before and 90 minutes after administration; format: in vivo, human
Method: as §1

[2] = system: blood hemoglobin and oxygen saturation; assay: fNIRS measurement of blood hemoglobin and oxygen saturation after oral administration; format: in vivo, human; conditions: conclusion, summary over subjects
Method: Subjects 1-4 were orally administered the formulation of Example 1. The Subjects were given either one or two administrations of 8.33 ml of the aqueous formulation of Example 1 on an empty stomach, i.e. wherein with each 8.33 ml the subject received 2,500 mg of the potassium-magnesium (−)-hydroxycitric acid salt, corresponding to 1745 mg of (−)-hydroxycitric acid.
fNIRS testing (functional Near Infrared Spectroscopy) was used to measure blood hemoglobin and oxygen saturation. fNIRS can be used to determine real-time peripheral and cerebral hemodynamic responses. For example, relative changes in HbR (deoxygen saturation), HbO (oxygen saturation), and HbT (total hemoglobin concentration), etc. can be determined via application of Modified Beer Lambert Law. HbR, Hb=deoxygen saturation (shown as the thinnest and bottom dashed line in FIG. 1) HbO, HbO2=oxygen saturation (shown as the medium-thickness and middle line in FIG. 1) HbT=total hemoglobin concentration (shown as the darkest, thickest and top line in FIG. 1). On the graphs, time is in seconds.

blood sugar = assay: Blood sugar levels after HCA administration; format: in vivo, human; conditions: conclusion, summary; in some cases only transient
Method: as §1, with “remeasured. […] It is hypothesized that this transient elevation is due to Randall's Cycle. […] In support of this explanation, it is noted that this subject had previously used HCA formulations with the result of keeping their otherwise elevated fasting blood glucose levels in the low- to mid-90s with consistent usage.” for “remeasured.”

[3] = a subject (Example 3), 5,000 mg salt (3,490 mg (−)-hydroxycitric acid), 90 minutes later
[4] = conclusion, summary over subjects

## O=C(O)C[C@](O)(C(=O)O)[C@H](O)C(=O)O [(2S,3R)-HCA]
Pancreatic alpha-amylase
  inhibition of pancreatic alpha-amylase: inhibits
[1]
  inhibition of intestinal alpha-glucosidase: inhibits

## potassium-magnesium salt of (−)-hydroxycitric acid
Cortisol; [3]
  decrease in cortisol level: 20%
Triglycerides; [3]
  decrease in triglyceride level: 67%

## O=C(O)CC(O)(C(=O)O)C(O)C(=O)O (stereo not drawn) [HCA, 1,2-dihydroxypropane-1,2,3-tricarboxylic acid]
ATP citrate lyase
  inhibition of ATP citrate lyase: competitive inhibitor
Ketones; Subject 5, 5,000 mg salt, empty stomach, 90 mins after administration, before 0.6
  Ketones Result: 0.5
Ketones; conclusion, summary
  levels of ketones: relatively stable or slightly lower
[2]
  blood hemoglobin: increased
  oxygen saturation: increased
Cortisol; [4]
  cortisol: decreased
Blood sugar
  glucose: increased
Triglycerides; [4]
  triglycerides: decreased

From US11766415B2, “Reducing triglyceride levels and cortisol levels with pharmaceutical preparations” (GLYKON TECHNOLOGIES GROUP, LLC, priority 2020, dated 2023)
